Measurements: PubChem BioAssay AID248 (DTP/NCI, 2004)
Where “and” joins values, the source holds several entries; their conditions need not be identical. Identical values can stand only once. Inconclusive results and toxic doses are left out. Cut-off read from the data, not from the text of the source: active = T/C of 150% or more; inactive = T/C below 125%.

Test system: L1210 leukemia ip in BDF1 mice, survival T/C
Test: NCI In Vivo Anticancer Drug Screen. Data for tumor model L1210 Leukemia (intraperitoneal) in B6D2F1 (BDF1) mice
Settings: endpoint: mean survival time, higher = longer survival
Summary of the method: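 Read-out is survival time, reported as the treated-group measurement over the vehicle-control measurement.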

[1] = dose: 50.0 mg/kg/injection, schedule: Q01DX001 (ip), vehicle: saline
[2] = dose: 100.0 mg/kg/injection, schedule: Q01DX001 (ip), vehicle: saline
[3] = dose: 200.0 mg/kg/injection, schedule: Q01DX001 (ip), vehicle: saline
[4] = dose: 400.0 mg/kg/injection, schedule: Q01DX001 (ip), vehicle: saline
[5] = dose: 100.0 mg/kg/injection, schedule: Q04DX003 (ip), vehicle: saline with Tween-80
[6] = dose: 200.0 mg/kg/injection, schedule: Q04DX003 (ip), vehicle: saline with Tween-80
[7] = dose: 25.0 mg/kg/injection, schedule: Q04DX003 (ip), vehicle: saline
[8] = dose: 50.0 mg/kg/injection, schedule: Q04DX003 (ip), vehicle: saline
[9] = dose: 100.0 mg/kg/injection, schedule: Q04DX003 (ip), vehicle: Klucel (hydroxypropylcellulose) (HPC)
[10] = dose: 200.0 mg/kg/injection, schedule: Q04DX003 (ip), vehicle: Klucel (hydroxypropylcellulose) (HPC)
[11] = dose: 400.0 mg/kg/injection, schedule: Q04DX003 (ip), vehicle: Klucel (hydroxypropylcellulose) (HPC)
[12] = dose: 100.0 mg/kg/injection, schedule: Q01DX009 (ip), vehicle: Klucel (hydroxypropylcellulose) (HPC)
[13] = dose: 200.0 mg/kg/injection, schedule: Q01DX009 (ip), vehicle: Klucel (hydroxypropylcellulose) (HPC)
[14] = dose: 400.0 mg/kg/injection, schedule: Q01DX009 (ip), vehicle: Klucel (hydroxypropylcellulose) (HPC)
[15] = dose: 100.0 mg/kg/injection, schedule: Q04DX002 (ip), vehicle: Klucel (hydroxypropylcellulose) (HPC)
[16] = dose: 200.0 mg/kg/injection, schedule: Q04DX002 (ip), vehicle: Klucel (hydroxypropylcellulose) (HPC)
[17] = dose: 400.0 mg/kg/injection, schedule: Q04DX002 (ip), vehicle: Klucel (hydroxypropylcellulose) (HPC)

Measured: T/C

O=C1NC(=O)C(c2cccc(Cl)c2)N1 (stereo unspecified)
inactive: [1] 106 % of control | [2] 93 % of control | [3] 98 % of control | [4] 104 % of control

CC(C)(C)C(=O)C(O)C(C)(C)C (stereo unspecified)
inactive: [2] 95 % of control | [3] 97 % of control | [4] 93 % of control

COC(=O)C(CCCCN=Cc1ccccc1O)N=Cc1ccccc1O.[Ni] (stereo unspecified)
inactive: [5] 87 % of control | [6] 88 % of control

COC(=O)C(Cc1ccccc1)NC(=O)/C=C/N(CCCl)CCCl (stereo unspecified)
inactive: dose: 10.0 mg/kg/injection, schedule: Q01DX Z (ip), vehicle: other 97 % of control | dose: 20.0 mg/kg/injection, schedule: Q01DX Z (ip), vehicle: other 96 % of control | dose: 40.0 mg/kg/injection, schedule: Q01DX Z (ip), vehicle: other 89 % of control | dose: 80.0 mg/kg/injection, schedule: Q01DX Z (ip), vehicle: other 102 % of control

Cc1ccc(S(=O)(=O)OC2CC3c4ccccc4C2c2cccc[n+]23)cc1 (stereo unspecified)
inactive: dose: 12.5 mg/kg/injection, schedule: Q01DX001 (ip), vehicle: saline 103 % of control | dose: 25.0 mg/kg/injection, schedule: Q01DX001 (ip), vehicle: saline 115 % of control | [7] 99 % of control | [1] 110 % of control | [8] 94 % of control | [2] 105 % of control

O=C1C=C(C(Cl)(Cl)Cl)OC(=O)C1
inactive: [5] 98 % of control | [6] 98 % of control | dose: 400.0 mg/kg/injection, schedule: Q04DX003 (ip), vehicle: saline with Tween-80 93 % of control

Cc1ncc(CSCC(=O)O)c(N)n1
inactive: [9] 103 % of control | [10] 100 % of control | [11] 103 % of control

CC1=NNC(=O)C1CCO (stereo unspecified)
inactive: dose: 25.0 mg/kg/injection, schedule: Q01DX009 (ip), vehicle: Klucel (hydroxypropylcellulose) (HPC) 98 % of control | dose: 50.0 mg/kg/injection, schedule: Q01DX009 (ip), vehicle: Klucel (hydroxypropylcellulose) (HPC) 98 % of control | [12] 92 % of control | [9] 89 % of control | [13] 95 % of control | [10] 96 % of control | [14] 97 % of control | [11] 100 % of control

COC1OC2COc3ccccc3OC2C(NC(C)=O)C1O (stereo unspecified)
inactive: dose: 100.0 mg/kg/injection, schedule: Q01DX009 (ip), vehicle: other 96 % of control | dose: 200.0 mg/kg/injection, schedule: Q01DX009 (ip), vehicle: other 89 % of control | dose: 400.0 mg/kg/injection, schedule: Q01DX009 (ip), vehicle: other 94 % of control

CCOC(=O)CNc1ccc(F)c(F)c1
inactive: [15] 97 % of control | [16] 90 % of control | [17] 103 % of control

[Cl][Ge]([c]1ccccc1)([c]1ccccc1)[c]1ccccc1
inactive: [12] 104 % of control | [13] 102 % of control | [14] 95 % of control

NS(=O)(=O)c1ccc(NC(=O)Nc2ccccc2Cl)cc1
inactive: dose: 100.0 mg/kg/injection, schedule: Q01DX001 (ip), vehicle: Klucel (hydroxypropylcellulose) (HPC) 90 % of control | [12] 100 % of control and 90 % of control | [15] 97 % of control and 108 % of control | [9] 106 % of control | dose: 200.0 mg/kg/injection, schedule: Q01DX001 (ip), vehicle: Klucel (hydroxypropylcellulose) (HPC) 88 % of control | [13] 94 % of control and 103 % of control | [16] 93 % of control and 108 % of control | [10] 106 % of control | dose: 400.0 mg/kg/injection, schedule: Q01DX001 (ip), vehicle: Klucel (hydroxypropylcellulose) (HPC) 92 % of control | [14] 98 % of control and 90 % of control | [17] 108 % of control and 92 % of control | [11] 105 % of control

Oc1ccc(-c2cc3c(O)ccc(O)c3[nH]2)cc1
inactive: dose: 50.0 mg/kg/injection, schedule: Q04DX002 (ip), vehicle: Klucel (hydroxypropylcellulose) (HPC) 96 % of control | [15] 105 % of control | [16] 102 % of control

Cc1cc(/C=N\N=C(N)N)c(C)n1-c1ccccc1
inactive: dose: 15.0 mg/kg/injection, schedule: Q01DX Z (ip), vehicle: carboxymethylcellulose (CMC) 92 % of control | dose: 30.0 mg/kg/injection, schedule: Q01DX Z (ip), vehicle: carboxymethylcellulose (CMC) 95 % of control | dose: 60.0 mg/kg/injection, schedule: Q01DX Z (ip), vehicle: carboxymethylcellulose (CMC) 89 % of control | dose: 60.0 mg/kg/injection, schedule: Q01DX Z (oral), vehicle: carboxymethylcellulose (CMC) 106 % of control | dose: 120.0 mg/kg/injection, schedule: Q01DX Z (ip), vehicle: carboxymethylcellulose (CMC) 97 % of control | dose: 120.0 mg/kg/injection, schedule: Q01DX Z (oral), vehicle: carboxymethylcellulose (CMC) 101 % of control | dose: 240.0 mg/kg/injection, schedule: Q01DX Z (oral), vehicle: carboxymethylcellulose (CMC) 95 % of control and 100 % of control | dose: 480.0 mg/kg/injection, schedule: Q01DX Z (oral), vehicle: carboxymethylcellulose (CMC) 95 % of control and 102 % of control | dose: 960.0 mg/kg/injection, schedule: Q01DX Z (oral), vehicle: carboxymethylcellulose (CMC) 103 % of control | dose: 1920.0 mg/kg/injection, schedule: Q01DX Z (oral), vehicle: carboxymethylcellulose (CMC) 107 % of control

CC(=O)OCCc1ccc(C)cc1
inactive: dose: 100.0 mg/kg/injection, schedule: Q04DX002 (ip), vehicle: saline with Tween-80 94 % of control | dose: 200.0 mg/kg/injection, schedule: Q04DX002 (ip), vehicle: saline with Tween-80 97 % of control | dose: 400.0 mg/kg/injection, schedule: Q04DX002 (ip), vehicle: saline with Tween-80 94 % of control

Cc1cc([N+](=O)[O-])c2nnnn2c1
inactive: dose: 100.0 mg/kg/injection, schedule: Q01DX001 (ip), vehicle: other 108 % of control | dose: 200.0 mg/kg/injection, schedule: Q01DX001 (ip), vehicle: other 90 % of control

COc1ccc(C(=O)/C(Br)=C/C(=O)O)cc1
inactive: dose: 12.5 mg/kg/injection, schedule: Q01DX009 (ip), vehicle: saline 102 % of control and 103 % of control and 108 % of control | dose: 12.5 mg/kg/injection, schedule: Q04DX003 (ip), vehicle: saline 94 % of control | dose: 25.0 mg/kg/injection, schedule: Q01DX009 (ip), vehicle: saline 98 % of control and 108 % of control (2×) | dose: 25.0 mg/kg/injection, schedule: Q04DX002 (ip), vehicle: saline 101 % of control | [7] 94 % of control | dose: 50.0 mg/kg/injection, schedule: Q01DX009 (ip), vehicle: saline 95 % of control and 110 % of control (2×) | dose: 50.0 mg/kg/injection, schedule: Q04DX002 (ip), vehicle: saline 105 % of control | [8] 108 % of control | dose: 100.0 mg/kg/injection, schedule: Q04DX002 (ip), vehicle: saline 112 % of control and 92 % of control
